Experimental data reported in patent US7232837B2, “Stereoisomers with high affinity for adrenergic receptors” (McNeil-PPC, Inc., priority 1999, dated 2007).
Counter-ions that a name gives are not always drawn.

Columns and labels:
[1] = tested on: New Zealand white rabbits; assay: Intraocular pressure (IOP) after topical application to the rabbit eye; type: in vivo; settings: for IOP: mean ± S.E.
Description: (§1) These diastereomers were administered topically as either 1% or 2% solutions in buffered saline. Pupillary diameter and IOP were measured in all animals over a six hour time period during the day to minimize diurnal variations in IOP and pupil diameter.
(§2) The experiments were performed on adult male New Zealand white rabbits weighing 3.0–6.0 kg. All rabbits were caged individually and maintained on a 12 hr/12 hr light/dark schedule with free access to food and water. All animal procedures were in conformity with the ARVO Resolution on the Use and Care of Animals in Research. All treated rabbits had served as controls by having received a saline treatment on a different day.
(§3) Only one eye received drug treatment. The contralateral eye served as a control. Saline (or PBS) and drug treated rabbits were treated and observed simultaneously. A single dose was given at time zero and IOP and pupil diameter measured at −1.0, −0.5, 0.5, 1, 3 and 5 hrs post-treatment.
IOP measurements were recorded with an Alcon Applanation Pneumotonograph (Surgical Products Division, Alcon Laboratories, Inc., Ft. Worth, Tex.) in rabbits placed in Lucite restraining cages. Initial topical application of a two drop 0.5% proparacaine HCl (Ophthetic®, Allergan Pharmaceuticals, Inc.) was performed on each rabbit.
(§4) Mean and Standard Error values were used to construct time-response and dose-response curves for the treated and contralateral eye of research rabbits. The data were analyzed statistically by an analysis of variance and a Bonferoni's test for significance. P<0.05 was the accepted level of significance.

[2] = tested on: New Zealand white rabbits; assay: Pupil diameter / mydriasis after topical application to the rabbit eye; type: in vivo; set-up: key to Mydriatic Responses, UNTREATED EYE: 0 = No change; + = 0–2 mm change; ++ = 2–4 mm change; settings: for Pupil Diameter: mean ± S.E.
Description: as §1, §2, §3
Pupil diameter was measured visually at the point of the greatest horizontal diameter with a transparent millimeter ruler. All measurements were made under the identical ambient lighting conditions.
as §4

Swiss-Webster mice = assay: Locomotor stimulant and depressant effects in mice; settings: i.p.
Description: Male Swiss-Webster mice (HSD ND4, Harlan Sprague Dawley, Houston, Tex.) aged 2–3 months were used in these studies. Each dose group consisted of 8 mice. The mice were housed 2 to 4 per cage in 30.4×22.9×15.2 cm clear polycarbonate cages with food and water available ad libitum for at least one week prior to locomotor activity testing. The colony was maintained at 23±1° C., on a normal light-dark cycle beginning at 0700 hr. All testing took place during the light portion of the light-dark cycle.
Horizontal (forward movement) locomotor activity was measured using a standardized, optical activity monitoring system [Model KXYZCM (16), Omnitech Electronics, Columbus, Ohio]. Activity was monitored in forty 40.5×40.5×30.5 cm clear acrylic chambers that where housed in sets of two within larger sound-attenuating chambers. A panel of 16 infrared beams and corresponding photodetectors were spaced 2 cm apart along the sides and 2.4 cm above the floor of each activity chamber. A 7.5-W incandescent light above each chamber provided dim illumination via a rheostat set to 20% of full scale. Fans provided an 80-dB ambient noise level within the chamber.
Triprolidine HCl was obtained from Research Biochemicals International, (Natick, Mass.).
Locomotor stimulant effects. […] (+)-Amphetamine was used as a positive control. The total horizontal distance traversed (cm) was recorded at 10 minute intervals for a 2-hour session. Separate groups of 8 mice were assigned to each dose or saline group, and dose-effect testing continued for each compound until maximal stimulant or depressant effects could be estimated. A separate control group was tested along with each compound.
Using TableCurve 2D v2.03 (Jandel Scientific), the mean average total distance traversed (cm/10 min) for that period was fit to a 3-parameter logistic peak function of log10 dose (with the constant set to the mean of the saline group), and the maximum effect estimated from the resulting curve. The […] (dose producing ½ maximal stimulant activity) was estimated from a linear regression against log10 dose of the ascending portion of the dose-effect curve. The stimulant efficacy was the peak effect of the compound (cm/10 min) as estimated from the logistic peak function, minus the mean control distance traveled (cm/10 min), and was expressed for each stimulant compound as a ratio to the stimulant efficacy determined for (+)-amphetamine.
The mean average total distance traversed (cm/10 min) for that period were fit to a linear function of log10 dose of the descending portion of the dose-effect curve. […] Efficacy was the ratio of maximal depressant effect to maximum possible depression for each compound (mean average total distance of the control group minus the lowest mean total distance, expressed as a ratio to the control group total distance).
Statistical analysis. Time course data for each compound were considered in 2-way analyses of variance with dose as a between-group and time as a within-group factor. The dose-effect data were considered in 1-way analyses of variance, and planned individual comparisons were conduced between each dose and the saline control group. Interaction studies were considered in 2-way analyses of variance, with Pretreatment and Test dose as the factors.

[3] = 1% topical, drug treated eye (T), 0.5 hr
[4] = 1% topical, drug treated eye (T), 1 hr
[5] = 1% topical, drug treated eye (T), 3 hr
[6] = 1% topical, drug treated eye (T), 5 hr
[7] = 1% topical, drug treated eye (T), −0.5 hr (pre-treatment)
[8] = 1% topical, drug treated eye (T), −1 hr (pre-treatment)
[9] = 1% topical, untreated contralateral eye (U), 0.5 hr
[10] = 1% topical, untreated contralateral eye (U), 1 hr
[11] = 1% topical, untreated contralateral eye (U), 3 hr
[12] = 1% topical, untreated contralateral eye (U), 5 hr
[13] = 1% topical, untreated contralateral eye (U), −0.5 hr (pre-treatment)
[14] = 1% topical, untreated contralateral eye (U), −1 hr (pre-treatment)
[15] = 2% topical, drug treated eye (T), 0.5 hr
[16] = 2% topical, drug treated eye (T), 1 hr
[17] = 2% topical, drug treated eye (T), 3 hr
[18] = 2% topical, drug treated eye (T), 5 hr
[19] = 2% topical, drug treated eye (T), −0.5 hr (pre-treatment)
[20] = 2% topical, drug treated eye (T), −1 hr (pre-treatment)
[21] = 2% topical, untreated contralateral eye (U), 0.5 hr
[22] = 2% topical, untreated contralateral eye (U), 1 hr
[23] = 2% topical, untreated contralateral eye (U), 3 hr
[24] = 2% topical, untreated contralateral eye (U), 5 hr
[25] = 2% topical, untreated contralateral eye (U), −0.5 hr (pre-treatment)
[26] = 2% topical, untreated contralateral eye (U), −1 hr (pre-treatment)

Question: For “Mephentermine Hemisulfate Salt [reference compound]”, which IOP [1, 3] is on record?
Answer: 24 ± 1.0 mmHg

Question: And the IOP [1, 4]?
Answer: 24 ± 0.7 mmHg

Question: And the IOP [1, 5]?
Answer: 22 ± 0.9 mmHg

Question: And the IOP [1, 6]?
Answer: 18 ± 1.6 mmHg

Question: What about the IOP [1, 7] of the same molecule?
Answer: 18 ± 1.8 mmHg

Question: What about the IOP [1, 8] of the same molecule?
Answer: 19 ± 1.7 mmHg

Question: What about the IOP [1, 9] of the same molecule?
Answer: 20 ± 2.1 mmHg

Question: What about the IOP [1, 10] of the same molecule?
Answer: 17 ± 1.6 mmHg

Question: What about the IOP [1, 11] of the same molecule?
Answer: 20 ± 1.4 mmHg

Question: What about the IOP [1, 12] of the same molecule?
Answer: 17 ± 1.5 mmHg

Question: What about the IOP [1, 13] of the same molecule?
Answer: 17 ± 1.0 mmHg

Question: What about the IOP [1, 14] of the same molecule?
Answer: 17 ± 1.1 mmHg

Question: What about the IOP [1, 15] of the same molecule?
Answer: 23 ± 2.2 mmHg

Question: What about the IOP [1, 16] of the same molecule?
Answer: 23 ± 2.2 mmHg

Question: What about the IOP [1, 17] of the same molecule?
Answer: 21 ± 2.3 mmHg

Question: And the IOP [1, 18]?
Answer: 23 ± 1.5 mmHg

Question: What about the IOP [1, 19] of the same molecule?
Answer: 19 ± 2.0 mmHg

Question: What about the IOP [1, 20] of the same molecule?
Answer: 21 ± 2.3 mmHg

Question: And the IOP [1, 21]?
Answer: 18 ± 1.6 mmHg

Question: What about the IOP [1, 22] of the same molecule?
Answer: 16 ± 1.0 mmHg

Question: What about the IOP [1, 23] of the same molecule?
Answer: 18 ± 0.8 mmHg

Question: And the IOP [1, 24]?
Answer: 20 ± 1.7 mmHg

Question: What about the IOP [1, 25] of the same molecule?
Answer: 17 ± 2.1 mmHg

Question: And the IOP [1, 26]?
Answer: 18 ± 2.2 mmHg

Question: What about the “Mydriatic Responses, TREATED EYE” value ([2]; 1% topical) of the same molecule?
Answer: ++ (++ = 2–4 mm change)

Question: And the “Mydriatic Responses, UNTREATED EYE” value ([2]; 1% topical)?
Answer: 0

Question: And the “Pupil Diameter” value [2, 3]?
Answer: 10 ± 0.2 mm

Question: What about the “Pupil Diameter” value [2, 4] of the same molecule?
Answer: 10 ± 0.2 mm

Question: What about the “Pupil Diameter” value [2, 5] of the same molecule?
Answer: 10 ± 0.2 mm

Question: And the “Pupil Diameter” value [2, 6]?
Answer: 10 ± 0.2 mm

Question: And the “Pupil Diameter” value [2, 7]?
Answer: 7 ± 0.2 mm

Question: What about the “Pupil Diameter” value [2, 8] of the same molecule?
Answer: 7 ± 0.2 mm

Question: And the “Pupil Diameter” value [2, 9]?
Answer: 7 ± 0.2 mm

Question: And the “Pupil Diameter” value [2, 10]?
Answer: 7 ± 0.2 mm

Question: And the “Pupil Diameter” value [2, 11]?
Answer: 7 ± 0.2 mm

Question: What about the “Pupil Diameter” value [2, 12] of the same molecule?
Answer: 7 ± 0.2 mm

Question: And the “Pupil Diameter” value [2, 13]?
Answer: 7 ± 0.2 mm

Question: And the “Pupil Diameter” value [2, 14]?
Answer: 7 ± 0.2 mm

Question: And the “Mydriatic Responses, TREATED EYE” value ([2]; 2% topical)?
Answer: + (+ = 0–2 mm change)

Question: What about the “Mydriatic Responses, UNTREATED EYE” value ([2]; 2% topical) of the same molecule?
Answer: 0

Question: What about the “Pupil Diameter” value [2, 15] of the same molecule?
Answer: 7 ± 0.7 mm

Question: What about the “Pupil Diameter” value [2, 16] of the same molecule?
Answer: 8 ± 0.7 mm

Question: And the “Pupil Diameter” value [2, 17]?
Answer: 6 ± 0.4 mm

Question: And the “Pupil Diameter” value [2, 18]?
Answer: 6 ± 0.4 mm

Question: And the “Pupil Diameter” value [2, 19]?
Answer: 6 ± 0.3 mm

Question: What about the “Pupil Diameter” value [2, 20] of the same molecule?
Answer: 6 ± 0.3 mm

Question: And the “Pupil Diameter” value [2, 21]?
Answer: 6 ± 0.3 mm

Question: And the “Pupil Diameter” value [2, 22]?
Answer: 6 ± 0.3 mm

Question: And the “Pupil Diameter” value [2, 23]?
Answer: 6 ± 0.3 mm

Question: What about the “Pupil Diameter” value [2, 24] of the same molecule?
Answer: 6 ± 0.3 mm

Question: And the “Pupil Diameter” value [2, 25]?
Answer: 6 ± 0.4 mm

Question: What about the “Pupil Diameter” value [2, 26] of the same molecule?
Answer: 6 ± 0.4 mm

Question: Which results are given for C[C@H](N)[C@H](O)c1cccc(O)c1 [Metaraminol Bitartrate Salt, USP, metaraminol bitartrate salt, reference compound]?
Answer: effect on IOP (result in words) ([1]; 1% or 2% topical, rabbit): accompanying increase in IOP; IOP [1, 3]: 25 ± 1.2 mmHg; IOP [1, 4]: 24 ± 1.3 mmHg; IOP [1, 5]: 21 ± 2.8 mmHg; IOP [1, 6]: 21 ± 2.7 mmHg; IOP [1, 7]: 19 ± 1.3 mmHg; IOP [1, 8]: 21 ± 2.3 mmHg; IOP [1, 9]: 18 ± 1.7 mmHg; IOP [1, 10]: 18 ± 1.0 mmHg; IOP [1, 11]: 19 ± 1.4 mmHg; IOP [1, 12]: 17 ± 0.8 mmHg; IOP [1, 13]: 16 ± 1.1 mmHg; IOP [1, 14]: 18 ± 1.4 mmHg; IOP [1, 15]: 15 ± 1.1 mmHg; IOP [1, 16]: 16 ± 3.6 mmHg; IOP [1, 17]: 14 ± 2.0 mmHg; IOP [1, 18]: 13 ± 0.8 mmHg; IOP [1, 19]: 14 ± 0.9 mmHg; IOP [1, 20]: 15 ± 0.7 mmHg; IOP [1, 21]: 19 ± 1.1 mmHg; IOP [1, 22]: 18 ± 0.8 mmHg; IOP [1, 23]: 19 ± 1.1 mmHg; IOP [1, 24]: 21 ± 1.6 mmHg; IOP [1, 25]: 15 ± 0.7 mmHg; IOP [1, 26]: 17 ± 1.2 mmHg; mydriasis / pupil diameter (result in words) ([2]; 1% or 2% topical, rabbit): produced mydriasis; Mydriatic Responses, TREATED EYE ([2]; 1% topical): ++ (++ = 2–4 mm change); Mydriatic Responses, UNTREATED EYE ([2]; 1% topical): 0; Pupil Diameter [2, 3]: 9 ± 0.5 mm; Pupil Diameter [2, 4]: 9 ± 0.5 mm; Pupil Diameter [2, 5]: 9 ± 0.2 mm; Pupil Diameter [2, 6]: 9 ± 0.5 mm; Pupil Diameter [2, 7]: 7 ± 0.5 mm; Pupil Diameter [2, 8]: 7 ± 0.5 mm; Pupil Diameter [2, 9]: 7 ± 0.5 mm; Pupil Diameter [2, 10]: 7 ± 0.5 mm; Pupil Diameter [2, 11]: 7 ± 0.5 mm; Pupil Diameter [2, 12]: 7 ± 0.5 mm; Pupil Diameter [2, 13]: 7 ± 0.5 mm; Pupil Diameter [2, 14]: 7 ± 0.5 mm; Pupil Diameter [2, 15]: 10 ± 0.2 mm; Pupil Diameter [2, 16]: 10 ± 0.2 mm; Pupil Diameter [2, 17]: 10 ± 0.2 mm; Pupil Diameter [2, 18]: 10 ± 0.2 mm; Pupil Diameter [2, 19]: 5 ± 0.2 mm; Pupil Diameter [2, 20]: 5 ± 0.2 mm; Pupil Diameter [2, 21]: 10 ± 0.2 mm; Pupil Diameter [2, 22]: 10 ± 0.2 mm; Pupil Diameter [2, 23]: 10 ± 0.2 mm; Pupil Diameter [2, 24]: 10 ± 0.2 mm; Pupil Diameter [2, 25]: 5 ± 0.2 mm; Pupil Diameter [2, 26]: 5 ± 0.2 mm

Question: With CC(N)Cc1ccccc1 (single isomer, unassigned; (+)) [(+)-amphetamine, (+)-Amphetamine] as the molecule, how does the “locomotor stimulant effects, time course (result in words)” value (Swiss-Webster mice) read?
Answer: dose- and time-dependent increase in the distance traversed within 10 minutes following injection
